From paper PMC5435703 (Scientific Reports, 2017)
Values after ≈ are worked out from the molar mass of the structure shown. Where two headings read alike, the source gives them in different places.

What was measured:
MRSA BAA-1707 [1] = assay: MIC broth microdilution assay; assay type: cell-based, Staphylococcus aureus
MRSE 35984 [2] = assay: MIC broth microdilution assay; assay type: cell-based, Staphylococcus epidermidis
VRE 700221 [3] = assay: MIC broth microdilution assay; assay type: cell-based, Enterococcus faecium
MRSA BAA-1707 [4] = assay: Calgary Biofilm Device (CBD) MBC/MBEC assay; assay type: cell-based, Staphylococcus aureus; details: for MBC: read-out: MRSA BAA-1707 MBC
VRE 700221 [5] = assay: Calgary Biofilm Device (CBD) MBC/MBEC assay; assay type: cell-based, Enterococcus faecium; details: for MBC: read-out: VRE 700221 MBC
MRSA-1707 biofilms = assay: CBD pulse biofilm eradication experiment; assay type: cell-based, Staphylococcus aureus; details: two subsequent 24 hour compound treatment phases
MRSA-1 = assay: MIC broth microdilution assay; assay type: cell-based, Staphylococcus aureus; details: Staphylococcus aureus, MRSA
MRSA-2 = assay: MIC broth microdilution assay; assay type: cell-based, Staphylococcus aureus; details: Staphylococcus aureus, MRSA; Table 1; read-out: MIC MRSA-2
MRSA, MRSE and VRE = assay: MIC assays, summary over strains; assay type: cell-based; details: read-out: MIC against all strains tested against
MRSA BAA-1707 [6] = assay: MIC assay with metal(II) cation co-treatment; assay type: cell-based, Staphylococcus aureus; details: Staphylococcus aureus
MRSE 35984 [7] = assay: Calgary Biofilm Device (CBD) MBC/MBEC assay; assay type: cell-based, Staphylococcus epidermidis; details: Staphylococcus epidermidis, MRSE
human red blood cells = details: human, 1 h, pH 7.2
S. aureus = test system: S. aureus; parameters: method as in PMID 24389824; details: initial studies; cited from earlier work
[8] = Table 1, three independent experiments, read-out: MIC MRSA BAA-1707
[9] = Staphylococcus aureus, Table 1, three independent experiments, read-out: MIC MRSA BAA-1707

`CCCCCCCCCCCCCCCC[N+](C)(C)Cc1ccccc1.[Cl-]` [BAC-16, reference compound] showed an MIC (MRSA BAA-1707 [1]; [8]) of 1.56 µM, an MIC (MRSA BAA-1707 [1]; Table 3, read-out: MRSA BAA-1707 MIC) of 1.56 µM and an MIC (MRSE 35984 [2]; Table 1, read-out: MIC MRSE 35984) of 1.56 µM. It also gave an MIC (MRSE 35984 [2]; Table 3, read-out: MRSE 35984 MIC) of 1.56 µM, an MIC (VRE 700221 [3]; Table 1, read-out: MIC VRE 700221) of 3.13 µM and an MIC (VRE 700221 [3]; Table 3, read-out: VRE 700221 MIC) of 3.13 µM. The “MRSA BAA-1707 MBEC” value (MRSA BAA-1707 [4]; CBD, biofilm eradication, 24 hours treatment) was 15.6 µM, the MBC (MRSA BAA-1707 [4]; CBD, planktonic killing, 24 hours treatment) was 31.3 µM and the “VRE 700221 MBEC” value (VRE 700221 [5]; CBD, biofilm eradication) was 3.0 µM. The MBC (VRE 700221 [5]; CBD, planktonic killing) was 5.9 µM and the “MBEC, pulse treatment” value (MRSA-1707 biofilms) was 25 µM.

In the case of `Oc1c(Br)cc(Br)c2nc3c(O)c(Br)cc(Br)c3nc12` [HP 15], the MIC (MRSA BAA-1707 [1]; [9]) is reported as over 50 µM, the MIC (MRSA BAA-1707 [1]; [8]) is reported as over 50 µM and the MIC (MRSA-1; Table 1, read-out: MIC MRSA-1) is reported as over 50 µM. For the same molecule, the MIC (MRSA-1; single plate shown as picture, read-out: MIC (µM), MIC Assay Against MRSA-1) was over 50 µM, the MIC (MRSA-2) was over 50 µM and the MIC (MRSE 35984 [2]; Staphylococcus epidermidis, MRSE, Table 1, read-out: MIC MRSE 35984) was over 50 µM. The MIC (VRE 700221 [3]; Enterococcus, VRE, Table 1, read-out: MIC VRE 700221) was over 50 µM and the MIC (MRSA, MRSE and VRE) was over 50 µM.

With `O=C(O)CN(CCN(CC(=O)O)CC(=O)O)CC(=O)O` [EDTA, ethylenediaminetetraacetic acid, reference compound] the MIC (MRSA BAA-1707 [1]; [9]) was 25 µM (≈ 7.31 µg/mL), the MIC (MRSA BAA-1707 [1]; Staphylococcus aureus, Table 3, read-out: MRSA BAA-1707 MIC) was 25 µM (≈ 7.31 µg/mL) and the MIC (MRSA-1; Table 1, read-out: MIC MRSA-1) was 12.5 µM (≈ 3.65 µg/mL). The MIC (MRSA BAA-1707 [6]; Table 2, MRSA BAA-1707, no metal(II) cation added, read-out: MIC) was 25 µM, the MIC (MRSA BAA-1707 [6]; copper(II) at 200 µM co-treatment, read-out: MIC w/Cu2+) was 50 µM and the MIC (MRSA BAA-1707 [6]; iron(II) at 200 µM co-treatment, read-out: MIC w/Fe2+) was 50 µM. It also gave an MIC (MRSA BAA-1707 [6]; magnesium(II) at 200 µM co-treatment, read-out: MIC w/Mg2+) of 50 µM, an MIC (MRSA BAA-1707 [6]; zinc(II) at 200 µM co-treatment, read-out: MIC w/Zn2+) of 50 µM and an MBC (MRSA BAA-1707 [4]; Staphylococcus aureus, 24 h) of over 2000 µM. The minimal effective concentration (MRSA BAA-1707 [4]; Staphylococcus aureus, 24 h, read-out: MRSA BAA-1707 MBEC) was over 2000 µM, the minimal effective concentration (MRSE 35984 [7]; 24 h, read-out: MRSE 35984 MBEC) was over 2000 µM and the MBC (MRSE 35984 [7]; read-out: MRSE 35984 MBC) was 1000 µM (≈ 292 µg/mL). The minimal effective concentration (VRE 700221 [5]; Enterococcus, VRE, 24 h, read-out: VRE 700221 MBEC) was 93.8 µM, the MBC (VRE 700221 [5]; Enterococcus, VRE) was over 2000 µM and the “Hemolysis at 200 µM (%)” value (human red blood cells) was at most 1%.

For `Oc1c(Br)ccc2nc3ccccc3nc12` [2-bromo-1-hydroxyphenazine, reference compound], the “MIC S. aureus” value (S. aureus) is given as 6.25 µM (≈ 1.72 µg/mL).
